Values of other authors, collected in patent publication US9669048B2, “Stable pharmaceutical composition of 5-aza-2′-deoxycitidine” (Fresenius Kabi Oncology Limited, priority 2012, dated 2017).

Conditions: reconstituted/diluted solution

Stability in aqueous media: highly unstable
Structure (SMILES): Nc1ncn([C@H]2CC(O)[C@@H](CO)O2)c(=O)n1 (stereo partly shown) [Decitabine, 5-aza-2′-deoxycitidine]
